ChEMBL document CHEMBL1275440, “In vitro activity of telavancin against resistant gram-positive bacteria” (2008)
≈ marks a conversion by molar mass, not a printed value. Calls of active or inactive are those of the source. The calls are words filed in the database; no cut-off is given here.

Experiments:
Streptococcus pyogenes [1] = experiment: Antibacterial activity against Streptococcus pyogenes MED 2040 by broth microdilution method; type: functional
Streptococcus agalactiae [2] = experiment: Antibacterial activity against Streptococcus agalactiae MED 2038 by broth microdilution method; type: functional
[3] = tested on: Staphylococcus epidermidis; experiment: Antibacterial activity against methicillin resistant Staphylococcus epidermidis ATCC 35984 by broth microdilution method; type: functional
Enterococcus faecium [4] = experiment: Antibacterial activity against vancomycin resistant Enterococcus faecium VanB clinical isolate assessed as susceptibility level by broth microdilution method; type: functional
Enterococcus faecium [5] = experiment: Antibacterial activity against vancomycin resistant Enterococcus faecium VanA clinical isolate assessed as susceptibility level by broth microdilution method; type: functional
Enterococcus faecalis [6] = experiment: Antibacterial activity against vancomycin resistant Enterococcus faecalis VanB clinical isolate assessed as susceptibility level by broth microdilution method; type: functional
Streptococcus viridans [7] = experiment: Antibacterial activity against Streptococcus viridans clinical isolate assessed as susceptibility level by broth microdilution method; type: functional
[8] = tested on: Streptococcus constellatus; experiment: Antibacterial activity against Streptococcus constellatus clinical isolate assessed as susceptibility level by broth microdilution method; type: functional
Streptococcus oralis [9] = experiment: Antibacterial activity against Streptococcus oralis clinical isolate assessed as susceptibility level by broth microdilution method; type: functional
[10] = tested on: Streptococcus intermedius; experiment: Antibacterial activity against Streptococcus intermedius clinical isolate assessed as susceptibility level by broth microdilution method; type: functional
Streptococcus mitis [11] = experiment: Antibacterial activity against Streptococcus mitis clinical isolate assessed as susceptibility level by broth microdilution method; type: functional
Streptococcus agalactiae [12] = experiment: Antibacterial activity against Streptococcus agalactiae group B clinical isolate assessed as susceptibility level by broth microdilution method; type: functional
Streptococcus pyogenes [13] = experiment: Antibacterial activity against Streptococcus pyogenes group A clinical isolate assessed as susceptibility level by broth microdilution method; type: functional
Streptococcus pneumoniae [14] = experiment: Antibacterial activity against penicillin intermediate Streptococcus pneumoniae clinical isolate assessed as susceptibility level by broth microdilution method; type: functional
[15] = tested on: Staphylococcus saprophyticus; experiment: Antibacterial activity against methicillin resistant coagulase-negative Staphylococcus saprophyticus clinical isolate assessed as susceptibility level by broth microdilution method; type: functional
[16] = Antibacterial activity against methicillin resistant coagulase-negative Staphylococcus hominis subsp. novobiosepticus clinical isolate assessed as susceptibility level by broth microdilution method; type: functional
[17] = tested on: Staphylococcus haemolyticus; experiment: Antibacterial activity against methicillin resistant coagulase-negative Staphylococcus haemolyticus clinical isolate assessed as susceptibility level by broth microdilution method; type: functional
Staphylococcus capitis [18] = experiment: Antibacterial activity against methicillin resistant coagulase-negative Staphylococcus capitis clinical isolate assessed as susceptibility level by broth microdilution method; type: functional
[19] = tested on: Staphylococcus auricularis; experiment: Antibacterial activity against methicillin resistant coagulase-negative Staphylococcus auricularis clinical isolate assessed as susceptibility level by broth microdilution method; type: functional
[20] = tested on: Staphylococcus epidermidis; experiment: Antibacterial activity against methicillin resistant Staphylococcus epidermidis clinical isolate assessed as susceptibility level by broth microdilution method; type: functional
Staphylococcus aureus [21] = experiment: Antibacterial activity against methicillin resistant Staphylococcus aureus clinical isolate assessed as susceptibility level by broth microdilution method; type: functional
Enterococcus faecium [22] = experiment: Antibacterial activity against vancomycin resistant Enterococcus faecium VanB clinical isolate by broth microdilution method; type: functional
Enterococcus faecium [23] = experiment: Antibacterial activity against vancomycin resistant Enterococcus faecium VanA clinical isolate by broth microdilution method; type: functional
Enterococcus faecalis [24] = experiment: Antibacterial activity against vancomycin resistant Enterococcus faecalis VanB clinical isolate by broth microdilution method; type: functional
Streptococcus viridans [25] = experiment: Antibacterial activity against Streptococcus viridans clinical isolate by broth microdilution method; type: functional
[26] = tested on: Streptococcus constellatus; experiment: Antibacterial activity against Streptococcus constellatus clinical isolate by broth microdilution method; type: functional
Streptococcus oralis [27] = experiment: Antibacterial activity against Streptococcus oralis clinical isolate by broth microdilution method; type: functional
[28] = tested on: Streptococcus intermedius; experiment: Antibacterial activity against Streptococcus intermedius clinical isolate by broth microdilution method; type: functional
Streptococcus mitis [29] = experiment: Antibacterial activity against Streptococcus mitis clinical isolate by broth microdilution method; type: functional
Streptococcus agalactiae [30] = experiment: Antibacterial activity against Streptococcus agalactiae group B clinical isolate by broth microdilution method; type: functional
Streptococcus pneumoniae [31] = experiment: Antibacterial activity against multidrug-resistant Streptococcus pneumoniae clinical isolate by broth microdilution method; type: functional
Streptococcus pneumoniae [32] = experiment: Antibacterial activity against penicillin resistant Streptococcus pneumoniae clinical isolate by broth microdilution method; type: functional
Streptococcus pneumoniae [33] = experiment: Antibacterial activity against penicillin intermediate Streptococcus pneumoniae clinical isolate by broth microdilution method; type: functional
[34] = tested on: Staphylococcus saprophyticus; experiment: Antibacterial activity against methicillin resistant coagulase-negative Staphylococcus saprophyticus clinical isolate by broth microdilution method; type: functional
[35] = Antibacterial activity against methicillin resistant coagulase-negative Staphylococcus hominis subsp. novobiosepticus clinical isolate by broth microdilution method; type: functional
[36] = tested on: Staphylococcus haemolyticus; experiment: Antibacterial activity against methicillin resistant coagulase-negative Staphylococcus haemolyticus clinical isolate by broth microdilution method; type: functional
Staphylococcus capitis [37] = experiment: Antibacterial activity against methicillin resistant coagulase-negative Staphylococcus capitis clinical isolate by broth microdilution method; type: functional
[38] = tested on: Staphylococcus auricularis; experiment: Antibacterial activity against methicillin resistant coagulase-negative Staphylococcus auricularis clinical isolate by broth microdilution method; type: functional
[39] = tested on: Staphylococcus epidermidis; experiment: Antibacterial activity against methicillin resistant Staphylococcus epidermidis clinical isolate by broth microdilution method; type: functional
Staphylococcus aureus [40] = experiment: Antibacterial activity against methicillin resistant Staphylococcus aureus clinical isolate by broth microdilution method; type: functional
Enterococcus faecalis [41] = tested on: Enterococcus faecalis

**Q.** Which MIC (Streptococcus pyogenes [1]) does the source give for CC(=O)NC[C@H]1CN(c2ccc(N3CCOCC3)c(F)c2)C(=O)O1 [LINEZOLID] here?
**A.** 1 µg/mL (≈ 2.96 µM)

**Q.** And the MIC (Streptococcus agalactiae [2])?
**A.** 1 µg/mL (≈ 2.96 µM)

**Q.** And the MIC [3]?
**A.** 2 µg/mL (≈ 5.93 µM)

**Q.** And the Activity (Enterococcus faecium [4])?
**A.** 96%

**Q.** And the Activity (Enterococcus faecium [5])?
**A.** 99%

**Q.** What about the Activity (Enterococcus faecalis [6]) of the same compound?
**A.** 100%

**Q.** What about the Activity (Streptococcus viridans [7]) of the same compound?
**A.** 100%

**Q.** What about the Activity [8] of the same compound?
**A.** 100%

**Q.** What about the Activity (Streptococcus oralis [9]) of the same compound?
**A.** 100%

**Q.** And the Activity [10]?
**A.** 100%

**Q.** And the Activity (Streptococcus mitis [11])?
**A.** 100%

**Q.** What about the Activity (Streptococcus agalactiae [12]) of the same compound?
**A.** 100%

**Q.** What about the Activity (Streptococcus pyogenes [13]) of the same compound?
**A.** 98%

**Q.** And the Activity (Streptococcus pneumoniae [14])?
**A.** 100%

**Q.** And the Activity [15]?
**A.** 100%

**Q.** And the Activity [16]?
**A.** 100%

**Q.** And the Activity [17]?
**A.** 100%

**Q.** And the Activity (Staphylococcus capitis [18])?
**A.** 100%

**Q.** What about the Activity [19] of the same compound?
**A.** 100%

**Q.** What about the Activity [20] of the same compound?
**A.** 100%

**Q.** What about the Activity (Staphylococcus aureus [21]) of the same compound?
**A.** 99%

**Q.** What about the MIC50 (Enterococcus faecium [22]) of the same compound?
**A.** 2 µg/mL (≈ 5.93 µM)

**Q.** What about the MIC90 (Enterococcus faecium [22]) of the same compound?
**A.** 2 µg/mL (≈ 5.93 µM)

**Q.** And the MIC50 (Enterococcus faecium [23])?
**A.** 2 µg/mL (≈ 5.93 µM)

**Q.** And the MIC90 (Enterococcus faecium [23])?
**A.** 2 µg/mL (≈ 5.93 µM)

**Q.** And the MIC (Enterococcus faecalis [24])?
**A.** 0.5 µg/mL (≈ 1.48 µM)

**Q.** And the MIC (Streptococcus viridans [25])?
**A.** 0.5 µg/mL (≈ 1.48 µM)

**Q.** What about the MIC50 (Streptococcus viridans [25]) of the same compound?
**A.** inactive

**Q.** And the MIC90 (Streptococcus viridans [25])?
**A.** inactive

**Q.** What about the MIC [26] of the same compound?
**A.** 0.5 µg/mL (≈ 1.48 µM)

**Q.** What about the MIC50 [26] of the same compound?
**A.** inactive

**Q.** And the MIC90 [26]?
**A.** inactive

**Q.** And the MIC (Streptococcus oralis [27])?
**A.** 0.5 µg/mL (≈ 1.48 µM)

**Q.** And the MIC50 (Streptococcus oralis [27])?
**A.** inactive

**Q.** What about the MIC90 (Streptococcus oralis [27]) of the same compound?
**A.** inactive

**Q.** What about the MIC [28] of the same compound?
**A.** 0.5 µg/mL (≈ 1.48 µM)

**Q.** And the MIC50 [28]?
**A.** inactive

**Q.** What about the MIC90 [28] of the same compound?
**A.** inactive

**Q.** And the MIC (Streptococcus mitis [29])?
**A.** 0.5 µg/mL (≈ 1.48 µM)

**Q.** What about the MIC50 (Streptococcus mitis [29]) of the same compound?
**A.** inactive

**Q.** And the MIC90 (Streptococcus mitis [29])?
**A.** inactive

**Q.** And the MIC50 (Streptococcus agalactiae [30])?
**A.** 1 µg/mL (≈ 2.96 µM)

**Q.** What about the MIC90 (Streptococcus agalactiae [30]) of the same compound?
**A.** 1 µg/mL (≈ 2.96 µM)

**Q.** What about the MIC50 (Streptococcus pneumoniae [31]) of the same compound?
**A.** 1 µg/mL (≈ 2.96 µM)

**Q.** What about the MIC90 (Streptococcus pneumoniae [31]) of the same compound?
**A.** 1 µg/mL (≈ 2.96 µM)

**Q.** What about the MIC50 (Streptococcus pneumoniae [32]) of the same compound?
**A.** 1 µg/mL (≈ 2.96 µM)

**Q.** And the MIC90 (Streptococcus pneumoniae [32])?
**A.** 1 µg/mL (≈ 2.96 µM)

**Q.** What about the MIC50 (Streptococcus pneumoniae [33]) of the same compound?
**A.** 1 µg/mL (≈ 2.96 µM)

**Q.** What about the MIC90 (Streptococcus pneumoniae [33]) of the same compound?
**A.** 1 µg/mL (≈ 2.96 µM)

**Q.** What about the MIC50 [34] of the same compound?
**A.** 1 µg/mL (≈ 2.96 µM)

**Q.** And the MIC90 [34]?
**A.** 2 µg/mL (≈ 5.93 µM)

**Q.** What about the MIC50 [35] of the same compound?
**A.** 1 µg/mL (≈ 2.96 µM)

**Q.** What about the MIC90 [35] of the same compound?
**A.** 2 µg/mL (≈ 5.93 µM)

**Q.** What about the MIC50 [36] of the same compound?
**A.** 1 µg/mL (≈ 2.96 µM)

**Q.** What about the MIC90 [36] of the same compound?
**A.** 2 µg/mL (≈ 5.93 µM)

**Q.** What about the MIC50 (Staphylococcus capitis [37]) of the same compound?
**A.** 1 µg/mL (≈ 2.96 µM)

**Q.** What about the MIC90 (Staphylococcus capitis [37]) of the same compound?
**A.** 2 µg/mL (≈ 5.93 µM)

**Q.** What about the MIC50 [38] of the same compound?
**A.** 1 µg/mL (≈ 2.96 µM)

**Q.** And the MIC90 [38]?
**A.** 2 µg/mL (≈ 5.93 µM)

**Q.** And the MIC50 [39]?
**A.** 1 µg/mL (≈ 2.96 µM)

**Q.** What about the MIC90 [39] of the same compound?
**A.** 1 µg/mL (≈ 2.96 µM)

**Q.** What about the Activity (Staphylococcus aureus [40]) of the same compound?
**A.** 99%

**Q.** And the MIC50 (Staphylococcus aureus [40]; Staphylococcus aureus)?
**A.** 2 µg/mL (≈ 5.93 µM)

**Q.** What about the MIC90 (Staphylococcus aureus [40]; Staphylococcus aureus) of the same compound?
**A.** 4 µg/mL (≈ 11.9 µM)

**Q.** What about the MIC50 (Enterococcus faecalis [41]) of the same compound?
**A.** inactive

**Q.** And the MIC90 (Enterococcus faecalis [41])?
**A.** inactive
